What was measured:
downy brome = assay: Test C preemergence/postemergence greenhouse plant response rating 0 to 100; format: in vivo, Bromus tectorum; settings: Rate 31 g/ha
Summary of the method: (§1)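 Compounds in non-phytotoxic solvent went onto sandy loam before emergence (seeded one day earlier) or onto plants at the one-to-four leaf stage. Duck salad was treated via flood water (~2.5 cm, maintained) over silt loam.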

wild oat = assay: as above; format: in vivo, Avena fatua; settings: for Plant response rating, Wild oat: 125 g/ha, 0 to 100 scale
Summary of the method: as §1

giant foxtail = assay: Test B preemergence/postemergence greenhouse plant response rating 0 to 10; format: in vivo, Setaria faberii; settings: for Plant response rating, Giant foxtail: 0 to 10 scale
Summary of the method: (§2)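 Test chemicals, dissolved in a non-phytotoxic solvent, were applied to soil at planting and, at the same time, over foliage of seedlings at the one to four leaf stage.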

soybean = assay: Test C preemergence/postemergence greenhouse plant response rating 0 to 100; format: in vivo, Glycine max; settings: for Plant response rating, Soybean: 125 g/ha, 0 to 100 scale
Summary of the method: as §1

umbrella sedge = assay: Test C flood test plant response rating 0 to 100; format: in vivo, Cyperus difformis
Summary of the method: (§3)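 Compounds in non-phytotoxic solvent applied preemergence to sandy loam one day after planting, postemergence at the 1–4 leaf stage, or to ~2.5 cm floodwater over silt loam.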

purple nutsedge = assay: Test B preemergence/postemergence greenhouse plant response rating 0 to 10; format: in vivo, Cyperus rotundus; settings: for Plant response rating, Nutsedge: 0 to 10 scale
Summary of the method: as §2

cotton = assay: Test C preemergence/postemergence greenhouse plant response rating 0 to 100; format: in vivo, Gossypium hirsutum; settings: for Plant response rating, Cotton: 125 g/ha, 0 to 100 scale
Summary of the method: as §1

lambsquarters = assay: Test B preemergence/postemergence greenhouse plant response rating 0 to 10; format: in vivo, Chenopodium album; settings: for Plant response rating, Lambsquarter: 0 to 10 scale
Summary of the method: as §2

barnyardgrass [1] = assay: Test C flood test plant response rating 0 to 100; format: in vivo, Echinochloa crus-galli
Summary of the method: as §3

barnyardgrass [2] = assay: Test B preemergence/postemergence greenhouse plant response rating 0 to 10; format: in vivo, Echinochloa crus-galli; settings: for Plant response rating, Barnyardgrass: 0 to 10 scale
Summary of the method: as §2

[3] = POSTEMERGENCE section, flood test, Rate 2 g/ha
[4] = Rate 8 g/ha, under POSTEMERGENCE head (flood test species)
[5] = Rate 31 g/ha, under POSTEMERGENCE head (flood test species)
[6] = flood test species listed under POSTEMERGENCE, 125 g/ha, 0 to 100 scale

SMILES: COCOc1cc(-c2nn3c(c2Cl)CCCC3)c(F)cc1Cl [Compound 58]
- Plant response rating (0 to 100), Downy Brome (downy brome; POSTEMERGENCE): 70
- Plant response rating (0 to 100), Downy Brome (downy brome; PREEMERGENCE): 30
- Plant response rating, Wild oat (wild oat; POSTEMERGENCE): 75
- Plant response rating (0 to 100), Wild oat (wild oat; POSTEMERGENCE, Rate 2 g/ha): 20
- Plant response rating, Wild oat (wild oat; PREEMERGENCE): 75
- Plant response rating (0 to 100), Wild oat (wild oat; PREEMERGENCE, Rate 2 g/ha): 0
- Plant response rating (0 to 100), Wild oat (wild oat; Rate 8 g/ha, POSTEMERGENCE): 30
- Plant response rating (0 to 100), Wild oat (wild oat; Rate 8 g/ha, PREEMERGENCE): 0
- Plant response rating (0 to 100), Wild oat (wild oat; Rate 31 g/ha, POSTEMERGENCE): 50
- Plant response rating (0 to 100), Wild oat (wild oat; Rate 31 g/ha, PREEMERGENCE): 10
- Plant response rating, Giant foxtail (giant foxtail; POSTEMERGENCE, Rate 50 g/ha): 6
- Plant response rating, Giant foxtail (giant foxtail; PREEMERGENCE, Rate 50 g/ha): 9
- Plant response rating (0 to 10 scale), Giant foxtail (giant foxtail; PREEMERGENCE, Rate 200 g/ha): 10
- Plant response rating, Giant foxtail (giant foxtail; Rate 200 g/ha, POSTEMERGENCE): 6
- Plant response rating, Soybean (soybean; POSTEMERGENCE): 85
- Plant response rating (0 to 100), Soybean (soybean; POSTEMERGENCE, Rate 2 g/ha): 50
- Plant response rating, Soybean (soybean; PREEMERGENCE): 0
- Plant response rating (0 to 100), Soybean (soybean; PREEMERGENCE, Rate 2 g/ha): 0
- Plant response rating (0 to 100), Soybean (soybean; Rate 8 g/ha, POSTEMERGENCE): 50
- Plant response rating (0 to 100), Soybean (soybean; Rate 8 g/ha, PREEMERGENCE): 0
- Plant response rating (0 to 100), Soybean (soybean; Rate 31 g/ha, POSTEMERGENCE): 70
- Plant response rating (0 to 100), Soybean (soybean; Rate 31 g/ha, PREEMERGENCE): 0
- Plant response rating (0 to 100), Umbrella sedge (umbrella sedge; [3]): 25
- Plant response rating (0 to 100), Umbrella sedge (umbrella sedge; [4]): 30
- Plant response rating (0 to 100), Umbrella sedge (umbrella sedge; [5]): 70
- Plant response rating Umbrella sedge (umbrella sedge; [6]): 100
- Plant response rating, Nutsedge (purple nutsedge; POSTEMERGENCE, Rate 50 g/ha): 5
- Plant response rating, Nutsedge (purple nutsedge; PREEMERGENCE, Rate 50 g/ha): 0
- Plant response rating (0 to 10 scale), Nutsedge (purple nutsedge; PREEMERGENCE, Rate 200 g/ha): 0
- Plant response rating, Nutsedge (purple nutsedge; Rate 200 g/ha, POSTEMERGENCE): 9
- Plant response rating, Cotton (cotton; POSTEMERGENCE): 100
- Plant response rating (0 to 100), Cotton (cotton; POSTEMERGENCE, Rate 2 g/ha): 95
- Plant response rating, Cotton (cotton; PREEMERGENCE): 40
- Plant response rating (0 to 100), Cotton (cotton; PREEMERGENCE, Rate 2 g/ha): 0
- Plant response rating (0 to 100), Cotton (cotton; Rate 8 g/ha, POSTEMERGENCE): 100
- Plant response rating (0 to 100), Cotton (cotton; Rate 8 g/ha, PREEMERGENCE): 0
- Plant response rating (0 to 100), Cotton (cotton; Rate 31 g/ha, POSTEMERGENCE): 100
- Plant response rating (0 to 100), Cotton (cotton; Rate 31 g/ha, PREEMERGENCE): 10
- Plant response rating, Lambsquarter (lambsquarters; POSTEMERGENCE, Rate 50 g/ha): 10
- Plant response rating, Lambsquarter (lambsquarters; PREEMERGENCE, Rate 50 g/ha): 10
- Plant response rating (0 to 10 scale), Lambsquarter (lambsquarters; PREEMERGENCE, Rate 200 g/ha): 10
- Plant response rating, Lambsquarter (lambsquarters; Rate 200 g/ha, POSTEMERGENCE): 10
- Plant response rating (0 to 100), Barnyardgrass 2 (barnyardgrass [1]; [3]): 0
- Plant response rating (0 to 100), Barnyardgrass 2 (barnyardgrass [1]; [4]): 95
- Plant response rating (0 to 100), Barnyardgrass 2 (barnyardgrass [1]; [5]): 100
- Plant response rating Barnyardgrass 2 (barnyardgrass [1]; [6]): 100
- Plant response rating, Barnyardgrass (barnyardgrass [2]; POSTEMERGENCE, Rate 50 g/ha): 6
- Plant response rating, Barnyardgrass (barnyardgrass [2]; PREEMERGENCE, Rate 50 g/ha): 4
- Plant response rating (0 to 10 scale), Barnyardgrass (barnyardgrass [2]; PREEMERGENCE, Rate 200 g/ha): 7
- Plant response rating, Barnyardgrass (barnyardgrass [2]; Rate 200 g/ha, POSTEMERGENCE): 9

Source: patent US6358885B1, “Substituted phenylheterocyclic herbicides” (Mississippi State University, priority 1992, dated 2002)
